Experimental data as given in publication PMC12333015, “Profiling the Impact of mGlu7/Elfn1 Protein Interactions on the Pharmacology of mGlu7 Allosteric Modulators” (ACS Chemical Neuroscience, 2025).

Test system: pyramidal cell to SST-IN synapses in the prefrontal cortex
Assay: Ex vivo whole-cell electrophysiology, eEPSCs recorded from SST-INs in prefrontal cortex slices
Type: cell-based, mouse
Text: Shown in Figure A are representative traces of eEPSCs recorded from SST-INs in response to 5-pulse stimulation with baseline in black, illustrating the characteristic facilitating nature of pyramidal cell (PYR) to SST-IN synapses.
Transgenic mice (both male and female) expressing tdTomato fluorescent protein in SST-INs were used in this study. They were generated by crossing female homozygous SST-Cre (Sst^tm2.1(cre)Zjh/J, Stock #: 013044, Jackson Laboratories) with male homozygous Ai9 mice (B6;Cg-Gt(Rosa)-26Sor^tm9(CAG‑tdTomato)Hze/J, Stock #: 007909, Jackson Laboratories). All animals were group housed with food and water available ad libitum, kept under a 12 h light/dark cycle with lights on from 6:00 AM to 6:00 PM, and were used for experiments during the light phase. All of the experimental procedures were approved by the Vanderbilt University Animal Care and Use committee and followed the guidelines set forth by the Guide for the Care and Use of Laboratory Animals. […] Whole cell recordings were made from visually identified, fluorescence-labeled SST-INs in layer V of PFC slices under the upright microscope. […] Excitatory postsynaptic currents (EPSCs) were recorded from layer V SST-INs at a holding potential of −80 mV and evoked by electrical stimulation (100 μs duration, applied every 15 s) through a concentric bipolar stimulating electrode placed around 100–150 μm from the recorded cell. The holding potential of −80 mV under voltage clamp is closed to the calculated reversal potential of Cl^– and thus the EPSCs recorded in the present studies had minimal GABAA-mediated component. Electrical stimulation applied near the recorded cell in the cortex presumably activates the local neurons preferentially. […] Data were analyzed using Clampfit 10 (Molecular Devices), Excel (Microsoft), and Prism (GraphPad Software), and presented as mean ± SEM. […]

O=C(Nc1ccc(Oc2ccc(Cl)cn2)c(Cl)c1)c1ccccn1 [VU0422288]
effect on eEPSC amplitude (10 μM VU0422288 alone, compared to baseline): no change in eEPSC amplitude
effect on eEPSCs of combination with L-AP4 (30 μM L-AP4 + 10 μM VU0422288, compared to L-AP4 alone): further depression of eEPSCs
